Test results reported in ChEMBL document CHEMBL1201862, “PubChem BioAssay data set” (2004).
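96-well plates; 48 h exposure; 5 concentrations. Endpoints by linear interpolation between flanking doses. Not reached: highest tested concentration assigned. GI50: concentration for 50% inhibition of growth.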 Calls of active or inactive are those of the source. Rule as the data show it: active = GI50 up to about 1.1 µM and inactive = higher.

How the values were obtained:
Assay in all cases: NCI anticancer screen, dose series, 48 h
DLD-1 = system: DLD-1
DMS-273 = system: DMS-273
HOP-18 = system: HOP-18
KM-20L2 = system: KM-20L2
LXFL 529 = system: LXFL 529
M19-MEL = system: M19-MEL
RXF 631 = system: RXF 631
SNB-78 = system: SNB-78
XF498 = system: XF498

Measured: GI50

Cc1ccc(NC(=O)CC2Sc3ccccc3NC2=O)c(C)c1 (stereo not drawn)
inactive: DLD-1 8.15 µM | DMS-273 12.2 µM | HOP-18 11 µM | KM-20L2 10.9 µM | LXFL 529 24.7 µM | M19-MEL 15.3 µM | RXF 631 7.94 µM | SNB-78 24.7 µM | XF498 18.2 µM

CC(C)(C)C(=O)C(c1ccc(-c2cscn2)cc1)c1ccc(-c2cscn2)cc1
inactive: DLD-1 > 79.6 µM | DMS-273 58.3 µM | HOP-18 67.5 µM | KM-20L2 > 100 µM | LXFL 529 39.7 µM | M19-MEL 65 µM | RXF 631 22.7 µM | SNB-78 18.5 µM | XF498 27.3 µM
